Results taken from patent EP1649856A2, “Use of pimecrolimus for selective immunomodulation” (Novartis AG, priority 2001, dated 2002).

Legend:
[1] = in vivo; set-up: species or system rats; settings: rat, skin; 2 oral doses of 25 mg/kg in an interval of 2 hours; 6 hours after the last dosing; read-out: skinlblood concentration ratio
Procedure: In another study designed to explore the differences between pimecrolimus and FK506 and to determine whether these differences might be associated with a different tissue distribution, the exposure to pimecrolimus and FK506 in various organs after oral administration were measured. Animals received 2 oral doses of 25 mg/kg in an interval of 2 hours. […] Pimecrolimus was found consistently to have a higher skinlblood concentration ratio than FK506 (2 hours: 7.3 vs. 2.8; 6 hours: 13 vs. 1.6; 24 hours: 36 vs. 6.0). The AUC0-24h in skin calculated for pimecrolimus was twice as high as with FK506.
These distribution characteristics are relevant not only for oral, but also for topical application, as the compound enters systemic circulation after permeation through the skin.

[2] = tested on: SCID mice reconstituted with CD4^+CD45RB^HI T cells; test: SCID-IBD mouse model, treatment from day 1 for 4 weeks; assay type: in vivo; settings: 3 and 10 mg/kg/day p.o., steroid-related
From the text: A well-established animal model for IBD exists (see Leach et al., Am. J. Pathol., Vol. 148, No. 5, pp. 1503-1515 (1996), and Powrie et al., Int. Immunol., Vol. 5, No. 11, pp. 1461-1471 (1993)). It is known that the transfer of syngeneic, naive T lymphocytes (CD4^+CD45RB^HI) into SCID mice results in a severe colitis and wasting disease, SCID-IBD. Histopathologically, features of both CD and UC are represented in this model which has been used throughout the 1990s to bring the understanding of the pathoetiology of this disease of immune dysregulation in man to its present status. There is no other animal model of IBD which is considered relevant for the human disease, both in mechanism and in validity of clinical treatment.
In this study, SCID mice reconstituted with CD4^+CD45RB^HI T lymphocytes were used. These mice are known to develop chronic colitis with characteristics similar to human IBD, as described above.
In this study, SCID mice were reconstituted with 2 x 10^5 CD4^+CD45RB^HI T cells and then treated with pimecrolimus (30, 60 and 100 mg/kg/day) or vehicle daily p.o. for 4 weeks. […] BW was monitored throughout. On termination, blood was withdrawn, spleen, mesenteric lymph nodes (MLN) and colon were removed. Serum haptoglobin levels were measured (ELISA), colitis was assessed histologically and lymphocyte and neutrophil numbers were calculated from FACS analysis of blood, spleen and MLN cell suspensions.
In order to determine the efficacy of ASM981 treatment in preventing intestinal mucosal damage in SCID-IBD mice, a histological examination of the colon sections was performed according to defined morphological parameters. All colon sections were assessed according to a scheme awarding degrees of severity governed by the extent of cell infiltration and inflammation with a score of 8 being the maximum.

Kp at 6 h [1] | effect on BW [2] | SMILES
1.6 | – | C=CC[C@@H]1/C=C(\C)C[C@H](C)C[C@H](OC)[C@H]2O[C@@](O)(C(=O)C(=O)N3CCCC[C@H]3C(=O)O[C@H](/C(C)=C/[C@@H]3CC[C@@H](O)[C@H](OC)C3)[C@H](C)[C@@H](O)CC1=O)[C@H](C)C[C@@H]2OC [FK506, tacrolimus, reference compound]
– | accelerated loss in BW | C[C@@H]1C[C@H]2[C@@H]3CCC4=CC(=O)C=C[C@]4(C)[C@@]3(F)[C@@H](O)C[C@]2(C)[C@@]1(O)C(=O)CO [Dexamethasone, reference compound]
